Test results reported in US20230002327A1, “SMALL-MOLECULE REGULATOR OF TLR8” (TSINGHUA UNIVERSITY, priority 2019, published 2023).

Key:
[1] = test system: peripheral blood mononuclear cells of patients suffering from rheumatoid arthritis; assay: TNF-α in PBMC of rheumatoid arthritis patients; format: cell-based, human; conditions: PBMC derived from rheumatoid arthritis patients (FIG. 9)
Protocol: Approximately 8 mL of blood was collected from untreated rheumatoid arthritis patients.
Peripheral blood mononuclear cells (PBMCs) were isolated from the whole blood derived from 6 rheumatoid arthritis patients using the lymphocyte separation medium, and the cells were seeded in a 96-well round-bottom plate at a density of 1×10^6 cells/mL immediately after the isolation (cultured in RPMI 1640 (0.25 mL/well)).
Afterwards, cells were treated with 0, 10, 20, 40 and 80 μM Compound 24, Compound 10 was used as a negative control, and cells were placed in a cell incubator (37° C., 5% CO2) for incubation.
After 24 hours, the resultant was centrifuged at 4,000 rpm/minute for 10 minutes, and then the supernatant was collected, frozen to −80° C. and used for the determination of TNF-α. Quantification was conducted using a human TNF ELISA Kit.

TLR7 = target: T1, TLR7 (Homo sapiens, UniProt Q9NYK1); assay: Inhibition of R848-induced signaling in HEK-Blue hTLR7 cell line (Quanti-Blue); format: cell-based
T1 construct: host or cells: HEK-Blue hTLR7 (HEK293-derived SEAP reporter cells)
T1 sequence (Q9NYK1 27-1049): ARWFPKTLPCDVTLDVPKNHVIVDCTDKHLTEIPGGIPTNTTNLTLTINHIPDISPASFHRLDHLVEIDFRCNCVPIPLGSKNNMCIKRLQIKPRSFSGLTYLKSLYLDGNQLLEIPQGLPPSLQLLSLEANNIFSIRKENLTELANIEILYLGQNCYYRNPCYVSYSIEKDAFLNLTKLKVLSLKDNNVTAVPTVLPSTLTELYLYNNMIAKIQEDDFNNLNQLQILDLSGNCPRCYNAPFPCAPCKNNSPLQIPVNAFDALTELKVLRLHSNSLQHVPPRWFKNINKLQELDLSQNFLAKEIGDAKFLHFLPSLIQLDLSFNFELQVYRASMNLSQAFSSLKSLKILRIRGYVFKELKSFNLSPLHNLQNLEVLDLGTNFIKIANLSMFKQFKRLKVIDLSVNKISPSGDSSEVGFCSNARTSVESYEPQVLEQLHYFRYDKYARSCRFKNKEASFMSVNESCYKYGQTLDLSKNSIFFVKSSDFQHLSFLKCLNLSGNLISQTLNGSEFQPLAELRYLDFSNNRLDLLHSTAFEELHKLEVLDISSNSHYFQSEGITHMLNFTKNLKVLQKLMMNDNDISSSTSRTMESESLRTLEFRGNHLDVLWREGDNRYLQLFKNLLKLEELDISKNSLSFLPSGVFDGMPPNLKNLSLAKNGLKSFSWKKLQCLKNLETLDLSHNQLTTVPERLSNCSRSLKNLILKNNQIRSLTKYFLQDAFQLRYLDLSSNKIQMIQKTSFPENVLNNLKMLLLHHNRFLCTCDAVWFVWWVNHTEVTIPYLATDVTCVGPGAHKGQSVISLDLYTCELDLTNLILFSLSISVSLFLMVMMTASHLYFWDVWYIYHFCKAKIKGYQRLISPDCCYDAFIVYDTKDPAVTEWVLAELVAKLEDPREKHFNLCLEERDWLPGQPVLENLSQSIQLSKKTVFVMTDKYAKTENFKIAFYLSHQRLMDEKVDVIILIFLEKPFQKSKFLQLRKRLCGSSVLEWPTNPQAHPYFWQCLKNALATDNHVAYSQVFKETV
Method in brief: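 HEK-Blue hTLR8 or hTLR7 cells in serum-free DMEM were co-treated for 24 h at 37 °C with compound plus 1 μg/mL R848, or 5 μg/mL ssRNA40/LyoVec or ORN06/LyoVec. SEAP in the supernatant was read with Quanti-Blue at OD620. % inhibition was taken relative to ligand-only and untreated cells, and IC50 was fitted.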

TLR7 (normalized inhibitory effect on R848-induced signaling) (TLR7)	Compound	inhibitory effect on inflammatory factor TNF-α [1]
–	CSc1nnc(CCCO)n1-c1cc(C)c(C)c(C)c1 [Compound 24, 3-(5-(methylthio)-4-(3,4,5-trimethylphenyl)-4H-1,2,4-triazole-3-yl)propan-1-ol]	significant inhibitory effect
1.0 ± 0.2	CCOCc1nc(I)c(-c2ccccc2)n1CC(C)(C)O [Compound 53, 1-[2-(ethoxymethyl)-4-iodo-5-phenyl-1H-imidazole-1-yl]-2-methylpropan-2-ol]	–
